In brackets after ≈: the same amount, converted by molar mass. Like-named read-outs stand apart in the source and are kept apart here.
Assays:
S. aureus Smith = experiment: In vitro antibacterial activity (MIC), S. aureus Smith; conditions: Staphylococcus aureus, 18 h
N. catarrhalis 8193 = experiment: In vitro antibacterial activity (MIC), N. catarrhalis 8193; conditions: 18 h
S. aureus 53-180 = experiment: In vitro antibacterial activity (MIC), S. aureus 53-180; conditions: Staphylococcus aureus, 53180, 18 h
P. vulgaris 6896 = experiment: In vitro antibacterial activity (MIC), P. vulgaris 6896; conditions: Proteus vulgaris, 6896, 18 h
K. pneumoniae 10031 = experiment: In vitro antibacterial activity (MIC), K. pneumoniae 10031; conditions: Klebsiella pneumoniae, 10031, 18 h
S. paratyphi 11737 = experiment: In vitro antibacterial activity (MIC), S. paratyphi 11737; assay type: cell-based; conditions: Salmonella enterica, 18 h
E. coli 9637 = experiment: In vitro antibacterial activity (MIC), E. coli 9637; conditions: Escherichia coli, 9637, 18 h
[1] = Antimalarial blood schizonticidal test in mice; assay type: in vivo, Plasmodium berghei (infected ICR/HA Swiss mice); set-up: ΔMST (increase in mean survival time): unit: days; conditions: mouse, in vivo, sc, single dose, read-out: Highest Non-Lethal Dose
Excerpt: (§1) In addition, the invention provides compounds which have antimalarial activity in vivo as evidenced by a standard blood schizonticidal test in mice infected with Plasmodium berghei KBG 173.
(§2) Utilizing young ICR/HA Swiss mice and a standard inoculum of Plasmodium berghei KBG 173, it is possible to produce a uniform disease fatal to 100% of untreated animals within 6 to 8 days with a mean survival time of 6.2 days. Test animals weigh from 18 to 22 grams but weight variations in any given experimental or control group are confined to 2-3 grams. All animals in any given test are approximately of the same age. Animals on test are housed in metal-topped plastic cages, given a standard laboratory diet and water ad libitum.
(§3) Test animals receive an intraperitoneal injection of 0.5 ml. of 1:100 dilution of heparinized heart's blood with a minimum of 90% parasitized cells (4 × 10^7 cells), drawn from donor mice infected one week earlier with Plasmodium berghei. The donor strain is maintained by weekly passages in separate groups of mice inoculated with a 0.5 ml. of 1:500 dilution of heparinized heart's blood.
(§4) Test compounds are administered after dissolution or suspension in peanut oil. A single dose is given subcutaneously 72 hours after the mice are infected with Plasmodium berghei. At this time a 10-15 percent parasitemia has developed; the disease is well established but has not produced sufficient debility to alter the response of the host to toxic effects of the drug on test. Since treatment is withheld for three days to permit the infection to become well established and death occurs in untreated controls within 6-8 days, it is felt that this system presents a candidate compound with the maximum challenge. In order to check factors such as changes in the infectivity of Plasmodium berghei or in the susceptibility of the host or to detect technical errors, a group of infected animals treated with pyrimethamine at dose levels producing definite increases in survival time is included in a positive control in every experiment.
(§5) In each experiment test compounds are administered in graded dosages. […] However, if an active drug is toxic for the host, its toxicity may become a limiting factor; continued increases in dose levels also increase the toxic effects and may result in the diminution of survival times. Deaths prior to the sixth day, when untreated controls begin to die, are regarded as nonparasitic and become the basis for toxicity evaluations. […] In calculating mean survival time, toxic deaths and 60-day survivors are not included.
(§6) Compounds are considered active which produce a cure in at least one test animal or which produce significant increases in mean survival times of the treated animals as compared with the mean survival times of untreated controls, provided that no drug related deaths (toxicity) are noted at the active dose.

[2] = test system: Plasmodium berghei KBG 173; experiment: Antimalarial blood schizonticidal test in mice; assay type: in vivo, Plasmodium berghei (infected ICR/HA Swiss mice); set-up: ΔMST (increase in mean survival time): unit: days; conditions: for ED100 / minimal effective dose: Plasmodium berghei, sc, single dose; for ED100: read-out: Lowest Dose Curing All Mice; for minimal effective dose: read-out: Min. Curing Dose; for Cure/Treat at Min. Curing Dose: at the Min. Curing Dose
Excerpt: as §1, §2, §3, §4, §5, §6

[3] = infected mice, highest dose with no deaths for any reason
[4] = 336 h, s.c., alive on day 14 considered cured, no 60-day data
[5] = this is the highest dose tested

| SMILES | MIC (S. aureus Smith) | MIC (N. catarrhalis 8193) | MIC (S. aureus 53-180) | MIC (P. vulgaris 6896) | MIC (K. pneumoniae 10031) | MIC (S. paratyphi 11737) | MIC (E. coli 9637) | MTD [1, 3] | ED100 ([2]; 1440 h, s.c., 60-day survivors) | minimal effective dose ([2]; 1440 h, s.c., 60-day survivors) | Cure/Treat at Min. Curing Dose ([2]; s.c., 60-day survivors) | ΔMST (increase in mean survival time) ([2]; s.c., dose 5 mg. per kg.) | further results |
| --- | --- | --- | --- | --- | --- | --- | --- | --- | --- | --- | --- | --- | --- |
| Cc1cc(C)c(Cn2ccc3c4c(N)nc(N)nc4ccc32)c(C)c1 [Example 27] | 250 µg/mL (≈ 754 µM) | 0.244 µg/mL (≈ 0.736 µM) | 250 µg/mL (≈ 754 µM) | > 250 µg/mL | 31.3 µg/mL (≈ 94.4 µM) | > 250 µg/mL | > 250 µg/mL | 80 mg/kg | 40 mg/kg | 5 mg/kg | 3/5 | – | ΔMST (increase in mean survival time) ([2]; s.c., dose 2.5 mg. per kg.): 7.3 |
| CC(C)c1ccc(Cn2ccc3c4c(N)nc(N)nc4ccc32)cc1 [Example 29] | 1.95 µg/mL (≈ 5.88 µM) | 0.244 µg/mL (≈ 0.736 µM) | 0.976 µg/mL (≈ 2.94 µM) | 62.5 µg/mL (≈ 189 µM) | 0.488 µg/mL (≈ 1.47 µM) | 62.5 µg/mL (≈ 189 µM) | 7.81 µg/mL (≈ 23.6 µM) | 20 mg/kg | 20 mg/kg | 10 mg/kg | 1/5 | – | ΔMST (increase in mean survival time) ([2]; s.c., dose 10 mg. per kg.): 10.2 |
| CSc1ccc(Cn2ccc3c4c(N)nc(N)nc4ccc32)cc1 [Example 31] | 0.976 µg/mL (≈ 2.91 µM) | 0.0152 µg/mL (≈ 0.0453 µM) | 0.488 µg/mL (≈ 1.45 µM) | 31.3 µg/mL (≈ 93.3 µM) | 0.122 µg/mL (≈ 0.364 µM) | 3.9 µg/mL (≈ 11.6 µM) | 0.488 µg/mL (≈ 1.45 µM) | – | – | – | – | – | MTD ([1]; alive on day 14 considered cured, no 60-day data): 40 mg/kg; ED100 [2, 4]: 20 mg/kg; minimal effective dose [2, 4]: 2.5 mg/kg; Cure/Treat at Min. Curing Dose ([2]; s.c., alive on day 14 considered cured): 4/5; ΔMST (increase in mean survival time) ([2]; s.c., dose 1.25 mg. per kg., alive on day 14 considered cured, no 60-day data): 6.2 |
| COc1ccccc1Cn1ccc2c3c(N)nc(N)nc3ccc21 [Example 32] | 0.976 µg/mL (≈ 3.06 µM) | 0.061 µg/mL (≈ 0.191 µM) | 0.976 µg/mL (≈ 3.06 µM) | 3.9 µg/mL (≈ 12.2 µM) | 0.244 µg/mL (≈ 0.764 µM) | 7.81 µg/mL (≈ 24.5 µM) | 1.95 µg/mL (≈ 6.11 µM) | 160 mg/kg | 40 mg/kg | 10 mg/kg | 3/5 | – | ΔMST (increase in mean survival time) ([2]; s.c., dose 10 mg. per kg.): 10.5 |
| COc1cccc(Cn2ccc3c4c(N)nc(N)nc4ccc32)c1 [Example 33] | 3.9 µg/mL (≈ 12.2 µM) | 0.976 µg/mL (≈ 3.06 µM) | 0.976 µg/mL (≈ 3.06 µM) | 7.81 µg/mL (≈ 24.5 µM) | 0.488 µg/mL (≈ 1.53 µM) | 7.81 µg/mL (≈ 24.5 µM) | 0.488 µg/mL (≈ 1.53 µM) | 40 mg/kg | 40 mg/kg | 10 mg/kg | 1/5 | 7.6 | – |
| Nc1nc(N)c2c(ccc3c2ccn3Cc2cccnc2)n1 [Example 44] | 7.81 µg/mL (≈ 26.9 µM) | < 0.0009 µg/mL | 0.976 µg/mL (≈ 3.36 µM) | 7.81 µg/mL (≈ 26.9 µM) | 0.122 µg/mL (≈ 0.42 µM) | 0.488 µg/mL (≈ 1.68 µM) | 0.488 µg/mL (≈ 1.68 µM) | 160 mg/kg | 160 mg/kg | 80 mg/kg | 3/5 | – | ΔMST (increase in mean survival time) ([2]; s.c., dose 40 mg. per kg.): 8.3 |
| Nc1nc(N)c2c(ccc3c2ccn3Cc2cccc3ccccc23)n1 [Example 47] | 3.9 µg/mL (≈ 11.5 µM) | 0.0019 µg/mL (≈ 0.0056 µM) | 0.976 µg/mL (≈ 2.88 µM) | 31.3 µg/mL (≈ 92.2 µM) | 0.976 µg/mL (≈ 2.88 µM) | 62.5 µg/mL (≈ 184 µM) | 15.6 µg/mL (≈ 46 µM) | 80 mg/kg | 20 mg/kg | 5 mg/kg | 2/5 | 9.2 | – |
| Nc1nc(N)c2c(ccc3c2ccn3Cc2ccc3ccccc3c2)n1 [Example 48] | 125 µg/mL (≈ 368 µM) | 0.244 µg/mL (≈ 0.719 µM) | 125 µg/mL (≈ 368 µM) | > 250 µg/mL | 7.81 µg/mL (≈ 23 µM) | > 250 µg/mL | 250 µg/mL (≈ 737 µM) | 1160 mg/kg | 40 mg/kg | 20 mg/kg | 4/5 | 7.3 | – |
| Cc1ccc2ccccc2c1Cn1ccc2c3c(N)nc(N)nc3ccc21 [Example 49] | 125 µg/mL (≈ 354 µM) | 0.122 µg/mL (≈ 0.345 µM) | 125 µg/mL (≈ 354 µM) | > 250 µg/mL | 15.6 µg/mL (≈ 44.1 µM) | > 250 µg/mL | > 250 µg/mL | 80 mg/kg | 20 mg/kg | – | 5/5 | – | minimal effective dose ([2]; this is the lowest dose tested): 20 mg/kg |
| Nc1nc(N)c2c(ccc3c2ccn3Cc2cccc3cccnc23)n1 [Example 51] | 0.244 µg/mL (≈ 0.717 µM) | 0.0152 µg/mL (≈ 0.0447 µM) | 0.122 µg/mL (≈ 0.358 µM) | 7.81 µg/mL (≈ 22.9 µM) | 0.122 µg/mL (≈ 0.358 µM) | 1.95 µg/mL (≈ 5.73 µM) | 0.244 µg/mL (≈ 0.717 µM) | 40 mg/kg | 20 mg/kg | 5 mg/kg | 1/5 | 6.4 | – |
| CCCCCCCn1ccc2c3c(N)nc(N)nc3ccc21 [Example 53] | 31.3 µg/mL (≈ 105 µM) | 0.488 µg/mL (≈ 1.64 µM) | 15.6 µg/mL (≈ 52.5 µM) | 250 µg/mL (≈ 841 µM) | 3.9 µg/mL (≈ 13.1 µM) | 62.5 µg/mL (≈ 210 µM) | 31.3 µg/mL (≈ 105 µM) | – | 640 mg/kg | 320 mg/kg | 2/5 | – | MTD [1, 5]: 640 mg/kg; ΔMST (increase in mean survival time) ([2]; s.c., dose 160 mg. per kg.): 9.5 |
| Nc1nc(N)c2c(ccc3c2ccn3CCCc2ccccc2)n1 [Example 56] | 250 µg/mL (≈ 788 µM) | 250 µg/mL (≈ 788 µM) | 250 µg/mL (≈ 788 µM) | 250 µg/mL (≈ 788 µM) | 250 µg/mL (≈ 788 µM) | 250 µg/mL (≈ 788 µM) | 250 µg/mL (≈ 788 µM) | – | 320 mg/kg | 160 mg/kg | 3/5 | – | MTD [1, 5]: 640 mg/kg; ΔMST (increase in mean survival time) ([2]; s.c., dose 80 mg. per kg.): 10.7 |
| CC(=O)c1ccc(Cn2ccc3c4c(N)nc(N)nc4ccc32)cc1 [Example 61, 7-[(4-Acetylphenyl)methyl]-7H-pyrrolo[3,2-f]-quinazoline-1,3-diamine] | 0.244 µg/mL (≈ 0.736 µM) | 0.0076 µg/mL (≈ 0.0229 µM) | 0.122 µg/mL (≈ 0.368 µM) | 1.95 µg/mL (≈ 5.88 µM) | 0.061 µg/mL (≈ 0.184 µM) | 0.976 µg/mL (≈ 2.95 µM) | 0.488 µg/mL (≈ 1.47 µM) | 40 mg/kg | 20 mg/kg | 2.5 mg/kg | 4/5 | 12.0 | – |
| Nc1nc(N)c2c(ccc3c2ccn3Cc2ccc(OC(F)(F)F)cc2)n1 [Example 64, 7-[(4-Trifluoromethoxyphenyl)methyl]-7H-pyrrolo[3,2-f]quinazoline-1,3-diamine] | 0.976 µg/mL (≈ 2.61 µM) | 0.031 µg/mL (≈ 0.083 µM) | 0.244 µg/mL (≈ 0.654 µM) | 62.5 µg/mL (≈ 167 µM) | 0.122 µg/mL (≈ 0.327 µM) | 62.5 µg/mL (≈ 167 µM) | 3.9 µg/mL (≈ 10.4 µM) | 10 mg/kg | 10 mg/kg | 2.5 mg/kg | 2/5 | – | ΔMST (increase in mean survival time) ([2]; s.c., dose 1.25 mg. per kg.): 9.6 |
| Nc1nc(N)c2c(ccc3c2ccn3-c2ccc([N+](=O)[O-])cc2)n1 [Example 77] | 3.9 µg/mL (≈ 12.2 µM) | 0.031 µg/mL (≈ 0.0968 µM) | 3.9 µg/mL (≈ 12.2 µM) | 250 µg/mL (≈ 780 µM) | 0.976 µg/mL (≈ 3.05 µM) | 62.5 µg/mL (≈ 195 µM) | 7.81 µg/mL (≈ 24.4 µM) | 640 mg/kg | 640 mg/kg | 160 mg/kg | 5/5 | – | ΔMST (increase in mean survival time) ([2]; s.c., dose 40 mg. per kg.): 28.3 |

Source: patent publication US4118561A, “7-(Substituted)-7H-pyrrolo[3,2-f]quinazoline-1,3-diamines” (priority 1977, dated 1978)
